Inconclusive results are not listed. Activity calls are given as the source filed them. No rule for the calls is given here.
test system: Mycobacterium tuberculosis non-replicating, growth inhibition; test: growth inhibition of non-replicating M. tuberculosis (AID 488890)

Row | Structure (SMILES) | IC50
1 | CC(C)OC(=O)c1cc(C(=O)c2cc(Cl)ccc2O)coc1=N | 4.66 µM
2 | O=C(c1ccc([N+](=O)[O-])o1)N1CCc2ccccc2C1 | 5.15 µM
3 | COc1ccc(C(C)NC(=O)CCc2ccccc2)cc1 (stereo unspecified) | 34.9 µM (inactive)
4 | CCOc1ccc(C(=O)C(CN2CCOCC2)c2ccccc2)cc1 (stereo unspecified) | 3.62 µM
5 | CCCCNC(=O)Nc1nnc(-c2ccc(OCC)cc2)o1 | 21.9 µM (inactive)
6 | CCOc1ccc(NC(=O)CCNC(=O)c2ccc(Br)cc2)cc1 | 13.8 µM (inactive)

— PubChem BioAssay AID488890 (Southern Research Specialized Biocontainment Screening …, 2010)
